Experimental data reported in ChEMBL document CHEMBL1142656, “Identification of 3-(acylamino)azepan-2-ones as stable broad-spectrum chemokine inhibitors resistant to metabolism in vivo” (2005).

Test system: THP-1
Test: In vitro activity to inhibit MCP-1-induced leukocyte migration of THP-1 cells
Type: functional
Details: Homo sapiens, read-out: ED50 (the source's name)

| EC50 | Compound |
| --- | --- |
| 15 µM | CCCCCCCCCCC(=O)N[C@@H](CCC(=O)O)C(N)=O |
| > 100 µM | N[C@H](CCC(=O)O)C(=O)O [D-GLUTAMATE] |
| 10 µM | CCCCCCCCCCC(=O)N[C@@H](CCC(=O)O)C(=O)O |
| 50 µM | CCCCCCCCCCC(=O)N[C@H](CCC(N)=O)C(=O)O |
| 0.245 µM | C=CCCCCCCCCC(=O)N[C@H]1CCNC1=O |
| 0.05 µM | CCCCCCCCCCC(=O)N[C@H]1CCCCNC1=O |
| 0.04 µM | C=CCCCCCCCCC(=O)N[C@H]1CCCCNC1=O |
| 0.003 µM | CCCCCCCC/C=C\CCCCCCCC(=O)N[C@H]1CCCCNC1=O |
| 0.01 µM | CCCCCCCCCCC(=O)NC1CCC(=O)NC1=O (single isomer, unassigned) |
| 0.005 µM | C=CCCCCCCCCC(=O)N[C@H]1CCC(=O)NC1=O |
| 0.003 µM | CCCCCCCCCCCCCCCC(=O)N[C@H]1CCCCNC1=O |
| 30 µM | CCCCCCCCCCC(=O)N[C@@H](CCC(N)=O)C(=O)O |
| 0.005 µM | CCCCCCCCCCCCCC(=O)N[C@H]1CCCCNC1=O |
| 0.25 µM | C=CCCCCCCCCC(=O)N[C@@H]1CCC(=O)NC1=O |
| 40 µM | CCCCCCCCCCC(=O)N[C@H](CCC(=O)O)C(N)=O |
| 0.015 µM | CCCCCCCCCCCC(=O)N[C@H]1CCCCNC1=O |
| 0.033 µM | C=CCCCCCCCCC(=O)N[C@H]1CCC(=O)N(C)C1=O |
| > 100 µM | N[C@@H](CCCC(=O)O)C(=O)O [(S)-2-AMINOADIPIC ACID] |
| 25 µM | CCCCCCCCCCC(=O)N[C@H](CCC(=O)O)C(=O)O |
| 0.01 µM | C#CCCCCCCCCC(=O)N[C@H]1CCCCNC1=O |
| 0.04 µM | CCCCCCCCCCCCCCCC(=O)N[C@@H]1CCCCNC1=O |
| 0.1 µM | C=CCCCCCCCCC(=O)N[C@H]1CCCNC1=O |
| 0.03 µM | CCCCCCCC/C=C\CCCCCCCC(=O)N[C@@H]1CCCCNC1=O |
| 0.003 µM | CCCCCC/C=C\CCCCCCCC(=O)N[C@H]1CCCCNC1=O |
